Patent publication US9682995B2, “Amino-substituted isothiazoles” (BAYER PHARMA AKTIENGESELLSCHAFT, priority 2013, dated 2017)

How the values were obtained:
[1] = system: spindle assembly checkpoint; experiment: SAC-Formation - Paclitaxel-Induced Assay; format: cell-based; conditions: Homo sapiens; HeLa cells, paclitaxel 0.05 μM, 24 h, phosphorylated histone H3 on serine 10
Outline: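 HeLa cells were plated overnight, then given paclitaxel (0.05 μM final) plus compound (0.005-20 μM, 0.5% DMSO) for 24 h at 37° C. Fixed cells were stained for phospho-histone H3 Ser10 and with Hoechst, then imaged to give mitotic index. A fall in mitotic cells marks SAC breakthrough, and values were fit with a four-parameter Hill equation.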

CDK2/CycE = CDK2/CycE (Homo sapiens (Human), UniProt P24941); experiment: CDK2/CycE kinase assay (TR-FRET); format: biochemical; conditions: 10 μM ATP; read-out: CDK2 avg (IC50 [mol/l])
Outline: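 GST-tagged human CDK2 and GST-CycE from Sf9 cells (~130 ng/ml) were preincubated with compound for 15 min at 22 °C. Reaction with 10 μM ATP and 0.75 μM biotinylated peptide (final) ran 25 min at 22 °C, pH 8.0. Phospho-peptide was read by TR-FRET (665/620 nm ratio, anti-pRB antibody, Eu donor) and normalised to no-enzyme and no-inhibitor controls.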

Compound | IC50 [1] [µM] | IC50 (CDK2/CycE) [µM]
COC(=O)c1cncc(Nc2snc(C)c2C(=O)Nc2ccc(F)c(F)c2)n1 [Example 66, Methyl 6-({4-[(3,4-difluorophenyl)carbamoyl]-3-methyl-1,2-thiazol-5-yl}amino)-pyrazine-2-carboxylate] | 0.09 | > 20
Cc1nsc(Nc2cnc3cc(C(F)(F)F)ccc3n2)c1C(=O)Nc1ccc(Cl)c(F)c1 [Example 68, N-(4-Chloro-3-fluorophenyl)-3-methyl-5-{[6-(trifluoromethyl)quinoxalin-2-yl]amino}-1,2-thiazole-4-carboxamide] | 0.03 | > 20
Cc1cncc(Nc2snc(C)c2C(=O)Nc2ccc(F)c(F)c2)n1 [Example 69] | 0.01 | > 20
CNC(=O)c1cncc(Nc2snc(C)c2C(=O)Nc2ccc(F)c(F)c2)n1 [Example 70, 6-({4-[(3,4-Difluorophenyl)carbamoyl]-3-methyl-1,2-thiazol-5-yl}amino)-N-methylpyrazine-2-carboxamide] | 0.94 | > 20
Cc1nsc(Nc2cncc(Cl)n2)c1C(=O)Nc1ccc(F)c(F)c1 [Example 71, 5-[(6-Chloropyrazin-2-yl)amino]-N-(3,4-difluorophenyl)-3-methyl-1,2-thiazole-4-carboxamide] | 0.084 | 8.6
COc1cncc(Nc2snc(C)c2C(=O)Nc2ccc(F)c(F)c2)n1 [Example 72, N-(3,4-Difluorophenyl)-5-[(6-methoxypyrazin-2-yl)amino]-3-methyl-1,2-thiazole-4-carboxamide] | 20 | > 20
CCNC(=O)c1cncc(Nc2snc(C)c2C(=O)Nc2ccc(F)c(F)c2)n1 [Example 73, 6-({4-[(3,4-Difluorophenyl)carbamoyl]-3-methyl-1,2-thiazol-5-yl}amino)-N-ethylpyrazine-2-carboxamide] | 0.063 | > 20
Cc1nsc(Nc2cnc(Cl)cn2)c1C(=O)Nc1ccc(F)c(F)c1 [Example 74, 5-[(5-Chloropyrazin-2-yl)amino]-N-(3,4-difluorophenyl)-3-methyl-1,2-thiazole-4-carboxamide] | 0.031 | > 20
CNC(=O)c1cnc(Nc2snc(C)c2C(=O)Nc2ccc(F)c(F)c2)cn1 [Example 75, 5-({4-[(3,4-Difluorophenyl)carbamoyl]-3-methyl-1,2-thiazol-5-yl}amino)-N-methylpyrazine-2-carboxamide] | 0.058 | > 20
CCc1cncc(Nc2snc(C)c2C(=O)Nc2ccc(F)c(F)c2)n1 [Example 76, N-(3,4-Difluorophenyl)-5-[(6-ethylpyrazin-2-yl)amino]-3-methyl-1,2-thiazole-4-carboxamide] | 0.013 | > 20
Cc1nsc(Nc2cnc(Br)cn2)c1C(=O)Nc1ccc(F)c(F)c1 [Example 77, 5-[(5-Bromopyrazin-2-yl)amino]-N-(3,4-difluorophenyl)-3-methyl-1,2-thiazole-4-carboxamide] | 0.0083 | > 20
CCNc1cncc(Nc2snc(C)c2C(=O)Nc2ccc(F)c(F)c2)n1 [Example 78, N-(3,4-Difluorophenyl)-5-{[6-(ethylamino)pyrazin-2-yl]amino}-3-methyl-1,2-thiazole-4-carboxamide] | 0.91 | > 20
CCc1cnc(Nc2snc(C)c2C(=O)Nc2ccc(F)c(F)c2)cn1 [Example 79, N-(3,4-Difluorophenyl)-5-[(5-ethylpyrazin-2-yl)amino]-3-methyl-1,2-thiazole-4-carboxamide] | 0.15 | > 20
CNC(=O)c1ccc(Nc2snc(C)c2C(=O)Nc2ccc(F)c(F)c2)nn1 [Example 80, 6-({4-[(3,4-Difluorophenyl)carbamoyl]-3-methyl-1,2-thiazol-5-yl}amino)-N-methylpyridazine-3-carboxamide] | 4.7 | > 20
Cc1nsc(Nc2cnc(C(F)(F)F)cn2)c1C(=O)Nc1ccc(F)c(F)c1 [Example 81, N-(3,4-Difluorophenyl)-3-methyl-5-{[5-(trifluoromethyl)pyrazin-2-yl]amino}-1,2-thiazole-4-carboxamide] | 0.016 | > 20
Cc1nsc(Nc2ccc(C(F)(F)F)nn2)c1C(=O)Nc1ccc(F)c(F)c1 [Example 83, N-(3,4-Difluorophenyl)-3-methyl-5-{[6-(trifluoromethyl)pyridazin-3-yl]amino}-1,2-thiazole-4-carboxamide] | 0.0093 | > 20
COc1ccc(NC(=O)c2c(C)nsc2Nc2cncc(C(F)(F)F)n2)cn1 [Example 84, N-(6-methoxypyridin-3-yl)-3-methyl-5-{[6-(trifluoromethyl)pyrazin-2-yl]amino}-1,2-thiazole-4-carboxamide] | 0.065 | > 20
COc1ccc(NC(=O)c2c(C)nsc2Nc2cnc(C(F)(F)F)cn2)cn1 [Example 85, N-(6-methoxypyridin-3-yl)-3-methyl-5-{[5-(trifluoromethyl)pyrazin-2-yl]amino}-1,2-thiazole-4-carboxamide] | 0.052 | > 20
CCc1ccccc1NC(=O)c1c(C)nsc1Nc1cnc2cc(Cl)ccc2n1 [Example 86, 5-[(6-Chloroquinoxalin-2-yl)amino]-N-(2-ethylphenyl)-3-methyl-1,2-thiazole-4-carboxamide] | 0.49 | > 20
COc1ccc2nc(Nc3snc(C)c3C(=O)Nc3ccc(OC)nc3)sc2c1 [Example 87, 5-[(6-Methoxy-1,3-benzothiazol-2-yl)amino]-N-(6-methoxypyridin-3-yl)-3-methyl-1,2-thiazole-4-carboxamide] | 0.35 | > 20
COc1ccc(NC(=O)c2c(C)nsc2Nc2nc3ccc(F)cc3s2)cn1 [Example 88, 5-[(6-Fluoro-1,3-benzothiazol-2-yl)amino]-N-(6-methoxypyridin-3-yl)-3-methyl-1,2-thiazole-4-carboxamide] | 1.1 | > 20
COc1ccc(NC(=O)c2c(C)nsc2Nc2nc3cccnc3s2)cn1 [Example 89, N-(6-Methoxypyridin-3-yl)-3-methyl-5-([1,3]thiazolo[5,4-b]pyridin-2-ylamino)-1,2-thiazole-4-carboxamide] | 2.3 | > 20
COc1ccc(NC(=O)c2c(C)nsc2Nc2nc3ccc(C)cc3s2)cn1 [Example 90, N-(6-Methoxypyridin-3-yl)-3-methyl-5-[(6-methyl-1,3-benzothiazol-2-yl)amino]-1,2-thiazole-4-carboxamide] | 2.3 | > 20
CCc1ccccc1NC(=O)c1c(C)nsc1Nc1nc(C(=O)OC)co1 [Example 91, Methyl 2-({4-[(2-ethylphenyl)carbamoyl]-3-methyl-1,2-thiazol-5-yl}amino)-1,3-oxazole-4-carboxylate] | 1.4 | > 20
CCOC(=O)c1cnc(Nc2snc(C)c2C(=O)Nc2ccccc2CC)s1 [Example 92, Ethyl 2-({4-[(2-ethylphenyl)-carbamoyl]-3-methyl-1,2-thiazol-5-yl}amino)-1,3-thiazole-5-carboxylate] | 5.6 | > 20
COc1ccc(NC(=O)c2c(C)nsc2Nc2ncc(C(=O)N3CCOCC3)s2)cc1F [Example 93, N-(3-Fluoro-4-methoxyphenyl)-3-methyl-5-{[5-(morpholin-4-ylcarbonyl)-1,3-thiazol-2-yl]amino}-1,2-thiazole-4-carboxamide] | 8 | > 20
COc1ccc(NC(=O)c2c(C)nsc2Nc2cnc3ccccc3n2)cn1 [Example 94, N-(6-Methoxypyridin-3-yl)-3-methyl-5-(quinoxalin-2-ylamino)-1,2-thiazole-4-carboxamide] | 5.6 | > 20
CCOC(=O)c1sc(Nc2snc(C)c2C(=O)Nc2ccc(Cl)c(F)c2)nc1C [Example 95, Ethyl 2-({4-[(4-chloro-3-fluoro-phenyl)carbamoyl]-3-methyl-1,2-thiazol-5-yl}amino)-4-methyl-1,3-thiazole-5-carboxylate] | 0.51 | > 20
